Results published in US20170107254A1, “Modified Antimicrobial Peptides” (priority 2014, published 2017).
Converted amounts (≈) assume the structure as drawn. Like-named read-outs stand apart in the source and are kept apart here. No end group written: not given here.

Assays:
[1] = system: A. fumigatus (AM2002/066 and NPCF2939); assay: Antifungal activity (CLSI M38-A2 micro-broth dilution) and MFC; format: cell-based; conditions: for A. fumigatus MIC100 / MIC: Table 5, average of two strains, 48 h at 30° C.; for MIC: read-out: A. fumigatus MIC100
Procedure: (§1) The fungal strains A. fumigatus (AM2002/066 and NPCF2939), A. flavus (01-1554 and NPCF7117) and A. niger (01-1494 and NCPF2022) were obtained from the National Collection of Pathogenic Fungi (NPCF) or American Type Culture Collection (ATCC). Fungal strains were grown on SAB slopes for 72 h at 30° C. before experimental use. C. albicans strain SC5314 was purchased from ATCC and grown overnight on SAB slopes at 30° C. before experimental use.
(§2) The antifungal activity of peptides was examined using the conditions of the Clinical Laboratory Standards Institute document M38-A2. Peptide antifungal activity was assessed by micro-broth dilutions with a serial two-fold dilution of test compound prepared in a 96 well plate from 0 to maximum concentration to be tested (here 2× concentration required, 250 μg/ml). Fungal suspensions were prepared by flooding slopes with PBS and filtering through gauze to collect spores. The suspension was then adjusted to a density of 2×10^4 colony-forming units/ml in 2× culture medium (RPMI 1640, 0.165 M MOPS, pH 7.4 with L-glutamine, without NaHCO3 medium) and an equal volume was added to the different peptide concentrations in the 96 well plate. Plates where incubated at 30° C. for 48 h before growth inhibition was determined by measuring absorbance at 530 nm (Biotek Powerwave). Antifungal activity was defined by the minimum inhibitory concentration (MIC), the concentration at which no growth was observed.
(§3) For examining the minimum fungicidal concentration (MFC) 10 μl of fungal and peptide suspension was transferred from every well to the corresponding well in a sterile 96-well plate containing fresh culture medium (RPMI-1640, 0.165 M MOPS, pH 7.4 with L-glutamine, without NaHCO3 medium). Aspergillus was then incubated for a further 48 h after which absorbance was measured at 530 nm. MFC was defined as the concentration at which no growth was observed.

[2] = system: A. flavus (01-1554 and NPCF7117); assay: as above; format: cell-based; conditions: Table 5, average of two strains, 48 h at 30° C.; for MIC: Aspergillus flavus, read-out: A. flavus MIC100
Procedure: as §1, §2, §3

[3] = system: A. niger (01-1494 and NCPF2022); assay: as above; format: cell-based; conditions: Table 5, average of two strains, 48 h at 30° C.; for MIC: Aspergillus niger, NCPF2022, read-out: A. niger MIC100
Procedure: as §1, §2, §3

[4] = system: A549 cells; conditions: lipid alone at 200 μg/ml
Procedure: The cell lines A549 (Human Lung Adenocarcinoma Epithelial Cell Line) and HepG2 (Human Hepatocellular Carcinoma Cell Line) were purchased from ATCC. A549 cells were maintained in F-12K medium (Gibco) containing 10% foetal bovine serum (Life Technologies) and 1% penicillin/streptomycin (Life Technologies) and HepG2 cells were maintained in Dulbecco's modified eagles medium (Gibco) containing 10% foetal bovine serum (Life Technologies), penicillin/streptomycin (Life Technologies) and 1% 0.01 mg/ml human transferrin (Sigma). Both were incubated at 37° C. with 5% CO2 until cells reached >80% confluence before splitting or experimental use.
Before exposure to peptides, the plate was incubated at 37° C. with 5% CO2 overnight to allow cells adhere. […] Medium was removed from the plate containing cells and peptide dilutions were transferred to cells and incubated for a further 3 h at 37° C. with 5% CO2. Cytotoxicity was determined by LIVE/DEAD® Viability/Cytotoxicity kit (Invitrogen Life Technologies), a working solution of 2 μM calcein AM and 4 μM EthD-1 and in conjunction Alamar Blue at a final concentration of 10% was added to the wells. Cells without peptides were the negative control and 1% DMSO was the positive control. Cells were incubated for 3 h again at 37° C. with 5% CO2.

[5] = system: human red blood cells (hRBC); assay: Haemolysis of human red blood cells; conditions: lipid alone at 200 μg/ml
Procedure: Peptides were tested for their haemolytic activity against human red blood cells (hRBC). Fresh hRBCs collected in BD Vacutainer® tubes with EDTA were rinsed 3 times with PBS (pH 7.4) by centrifugation for 10 min at 800 g and resuspended, 1 in 10 diluted with PBS. […] Release of haemoglobin was then calculated by transferring supernatant to a flat bottomed 96-well plate and measuring absorbance at 578 nm. hRBCs with no peptides added and H2O provided the controls.

[6] = system: C. albicans SC5314; format: cell-based; conditions: RPMI-1640, 48 h data
Procedure: The purity of the peptide was taken into account during the preparation to ensure preparation of the correct concentration. Peptides solutions were stored at −20° C. until required.
The antifungal activity of the peptides was based on that of the Clinical Laboratory Standards Institute document M27-A3. A serial two-fold dilution of peptide was prepared across a 96-well microtitre plate with concentration ranging from 2 mg/ml to […]; upon addition of the cells these concentrations shall be halved, with additional wells lacking peptide as a 0 mg/ml control. An addition control lacking culture was also prepared.
To prepare the fungal inoculum, an overnight culture of C. albicans SC5314 was grown at 30° C. on Sabouraud dextrose agar. Cells were washed from the surface of the agar and diluted to the equivalent of the 0.5 MacFarland standard. A further 1:50 dilution of the cells into 2×RPMI-1640 was carried out, and an equal volume was added to the different peptide concentrations in the microtitre plate. To measure the metabolic activity of the cells, 10 μl of a 0.25% solution of resazurin was added to each well. Plates were incubated in the dark at 30° C. for 48 h with growth inhibition determined by measuring absorbance at 530 nm/590 nm at 0 h, 24 h and 48 h on a BioTek PoweWave. Antifungal activity was defined by the minimum inhibitory concentration (MIC), the concentration at which no growth was observed.

[7] = system: C. albicans SC5314; format: cell-based; conditions: RPMI-1640 and 25% plasma, 24 h data
Procedure: A peptide “master” plate was prepared by the addition of 200 μl of the 20 mg/ml stock to column 11 on a microtitre plate. One hundred microliters of sterile water was added to the remaining wells. Serial two-fold dilutions of the peptides were carried out across the plate from right to left. From the “master” plate, 25 μl of peptides were added to corresponding wells on three “working” plates. To each well on the “working” plate, 25 μl human plasma was added, resulting in the halving of both the concentration of the peptide in the working plate and human plasma. Column 12 contained the controls.
An overnight culture of C. albicans SC5314 was grown at 30° C. on Sabouraud dextrose agar and the cells were washed from the surface of the agar and diluted to the equivalent of the 0.5 MacFarland standard. A further 1:50 dilution of the cells into 2×RPMI-1640 was carried out, and 50 μl of the cell suspension was added to each well of the plate. […] Plates were incubated at 30° C. for 48 h with growth inhibition determined by measuring absorbance at 530 nm at 0 h, 24 h and 48 h on a BioTek PoweWave. Antifungal activity was defined by the minimum inhibitory concentration (MIC), the concentration at which no growth was observed.

[8] = system: C. albicans SC5314; format: cell-based
Procedure: 1×RPMI-1640 Buffered with Citrate Phosphate Buffer
Citrate phosphate buffer was prepared by mixing 0.1 M citric acid and 0.2 M dibasic sodium phosphate dodecahydrate in the proportions indicated in the Table 2 and the volume adjusted to 90 ml with dH2O.
pH buffered medium was prepared by dissolving 1.04 g RPMI-1640 premix powder in 10 ml citrate phosphate buffer. The volume was then adjusted to 40 ml with dH2O and the pH adjusted by addition of the acid or base. The volume was adjusted to 50 ml with dH2O. The medium was then filter sterilized by vacuum filtration through a 0.2 μm filter and stored at 4° C. and kept for up to 2 weeks.
The pH of RPMI-1640 was altered, using citrate phosphate buffer, to reflect the more acidic pH environment in the oral cavity. NP319 and NP377 were active against C. albicans SC5314 from pH 5.5-7.0 (Table 2). For all AMPs tested the optimum pH for activity was pH 5.5. NP377 maintained activity at 2 μg/ml from pH 5.5-7 with reduced activity at pH 5.

[9] = system: C. albicans SC5314
Procedure: (B) Efficacy of AMPs of same length was evaluated by MIC after 24 incubation at 37° C. Data is expressed as percentage of the positive growth controls. Data is the mean±standard error of the mean (n=3).
The efficacy of AMPs was determined versus C. albicans SC5314 before evaluating the effect of pH on activity.

[10] = neutral pH, no saliva, 24 h incubation at 37° C.

Compound: CC(=O)O [Acetic (C2), Acetic]
- inhibition at 200 µg/mL ([1]; Aspergillus fumigatus, lipid alone at 200 μg/ml, 48 h, read-out: % Growth Inhibition of A. fumigatus at 48 h): 5%

Compound: C[C@@H]1[C@H](O)[C@@H](C)/C=C/C=C/C=C/C=C/C=C/C=C/C=C/[C@H](O[C@@H]2O[C@H](C)[C@@H](O)[C@H](N)[C@@H]2O)C[C@@H]2O[C@](O)(C[C@@H](O)C[C@@H](O)[C@H](O)CC[C@@H](O)C[C@@H](O)CC(=O)O[C@H]1C)C[C@H](O)[C@H]2C(=O)O [Amphotericin B]
- A. flavus MIC100 [2]: 1.5 µg/mL
- A. fumigatus MIC100 [1]: 1 µg/mL
- A. niger MIC100 [3]: <1 µg/mL

Compound: CCCC(=O)O [Butanoic (C4), Butanoic]
- % Growth Inhibition of A. fumigatus at 48 h ([1]; lipid alone at 200 μg/ml, 48 h): 35%
- % A549 Cell Death at 3 h [4]: 0%
- % Haemolytic Activity at 3 h [5]: 30%

Compound: CC[C@H](C)C[C@H](C)CCCCCCCCC(=O)N[C@H]1C[C@@H](O)[C@@H](NCCN)NC(=O)[C@@H]2[C@@H](O)CCN2C(=O)[C@H]([C@H](O)CCN)NC(=O)[C@H]([C@H](O)[C@@H](O)c2ccc(O)cc2)NC(=O)[C@@H]2C[C@@H](O)CN2C(=O)[C@H]([C@@H](C)O)NC1=O [Caspofungin]
- MIC [2]: 128 µg/mL (≈ 117 µM)
- MIC ([1]; Aspergillus fumigatus): 64 µg/mL (≈ 58.5 µM)
- MIC [3]: 16 µg/mL (≈ 14.6 µM)

Compound: CCCCCCCCCC(=O)O [Decanoic (C10), Decanoic]
- % Growth Inhibition of A. fumigatus at 48 h ([1]; lipid alone at 200 μg/ml, 48 h): 20%
- % A549 Cell Death at 3 h [4]: 25%
- % Haemolytic Activity at 3 h [5]: 10%

Compound: CCCCCCCCCCCC(=O)O [Dodecanoic (C12), Dodecanoic]
- % Growth Inhibition of A. fumigatus at 48 h ([1]; lipid alone at 200 μg/ml, 48 h): 45%
- % A549 Cell Death at 3 h [4]: 20%
- % Haemolytic Activity at 3 h [5]: 20%

Compound: OC(Cn1cncn1)(Cn1cncn1)c1ccc(F)cc1F [Fluconazole]
- MIC [2]: 64 µg/mL (≈ 209 µM)
- MIC ([1]; Aspergillus fumigatus): 64 µg/mL (≈ 209 µM)
- MIC [3]: 64 µg/mL (≈ 209 µM)

Compound: CCCCCC(=O)O [Hexanoic (C6), Hexanoic]
- % Growth Inhibition of A. fumigatus at 48 h ([1]; lipid alone at 200 μg/ml, 48 h): 50%
- % A549 Cell Death at 3 h [4]: 0%
- % Haemolytic Activity at 3 h [5]: 40%

Compound: CCC(C)n1ncn(-c2ccc(N3CCN(c4ccc(OCC5COC(Cn6cncn6)(c6ccc(Cl)cc6Cl)O5)cc4)CC3)cc2)c1=O (stereo not shown) [Itraconcazole]
- A. flavus MIC100 [2]: 1 µg/mL
- A. fumigatus MIC100 [1]: <1 µg/mL
- A. niger MIC100 [3]: <1 µg/mL

Compound: N=C(N)NCCC[C@H](NC(=O)[C@H](CCCNC(=N)N)NC(=O)[C@H](CCCNC(=N)N)NC(=O)[C@H](CCCNC(=N)N)NC(=O)[C@H](CCCNC(=N)N)NC(=O)[C@H](CCCNC(=N)N)NC(=O)[C@H](CCCNC(=N)N)NC(=O)[C@H](CCCNC(=N)N)NC(=O)[C@H](CCCNC(=N)N)NC(=O)[C@H](CCCNC(=N)N)NC(=O)[C@H](CCCNC(=N)N)NC(=O)[C@H](CCCNC(=N)N)NC(=O)[C@H](CCCNC(=N)N)NC(=O)[C@@H](N)CCCNC(=N)N)C(=O)O [Novamycin]
- MIC50 [6]: <2 µg/mL
- MIC80 [6]: 2 µg/mL (≈ 0.907 µM)
- MIC100 [6]: 4 µg/mL (≈ 1.81 µM)
- MIC50 [7]: 78.1 µg/mL (≈ 35.4 µM)
- MIC80 [7]: 156.25 to 312.5 µg/mL
- MIC100 [7]: 312.5 µg/mL (≈ 142 µM)

Compound: C[C@@H]1[C@H](O)[C@@H](C)/C=C/C=C/CC/C=C/C=C/C=C/C=C/C(O[C@H]2O[C@H](C)[C@@H](O)[C@H](N)[C@@H]2O)CC2O[C@](O)(CC(O)C(O)CCC(O)CC(O)CC(O)CC(=O)O[C@H]1C)CC(O)C2C(=O)O (stereo partly shown) [Nystatin]
- MIC50 ([8]; pH 4.5): 2 µg/mL (≈ 2.16 µM)
- MIC100 ([8]; pH 4.5): 2 µg/mL (≈ 2.16 µM)
- MIC50 ([8]; pH 5): 1 µg/mL (≈ 1.08 µM)
- MIC100 ([8]; pH 5): 1 µg/mL (≈ 1.08 µM)
- MIC50 ([8]; pH 5.5): 1 µg/mL (≈ 1.08 µM)
- MIC100 ([8]; pH 5.5): 1 µg/mL (≈ 1.08 µM)
- MIC50 ([8]; pH 6): 1 µg/mL (≈ 1.08 µM)
- MIC100 ([8]; pH 6): 1 µg/mL (≈ 1.08 µM)
- MIC50 ([8]; pH 6.5): 1 µg/mL (≈ 1.08 µM)
- MIC100 ([8]; pH 6.5): 1 µg/mL (≈ 1.08 µM)
- MIC50 ([8]; pH 7): 1 µg/mL (≈ 1.08 µM)
- MIC100 ([8]; pH 7): 1 µg/mL (≈ 1.08 µM)

Compound: CCCCCCCC(=O)O [Octanoic (C8), Octanoic]
- % Growth Inhibition of A. fumigatus at 48 h ([1]; lipid alone at 200 μg/ml, 48 h): 60%
- % A549 Cell Death at 3 h [4]: 5%

Compound: CCCCCCCCCCCCCCCC(=O)O [Palmitic (C16), Palmitic]
- % Growth Inhibition of A. fumigatus at 48 h ([1]; lipid alone at 200 μg/ml, 48 h): 0%
- % A549 Cell Death at 3 h [4]: 10%

Compound: CCCCCCCCCCCCCC(=O)O [Tetradecanoic (C14), Tetradecanoic]
- % Growth Inhibition of A. fumigatus at 48 h ([1]; lipid alone at 200 μg/ml, 48 h): 15%
- % A549 Cell Death at 3 h [4]: 0%
- % Haemolytic Activity at 3 h [5]: 20%

Compound: Palm-dRdRdRdRdRdRdRdRdRdRdRdR-CONH [NP375]
- MIC100 [9, 10]: 16 µg/mL

Compound: Poly-L-Arg, HCl salt [NP121]
- MIC80 [9, 10]: 64 µg/mL

Compound: RRRFRFRFRFRRR [NP466]
- MIC90 ([9]; SC5314, 24 h): 32 µg/mL
- MIC100 [9, 10]: did not achieve a MIC100

Compound: dHdHdRdRdRdRdRdRdRdRdRdRdRdRdR-CONH [NP376]
- MIC100 [9, 10]: 2 µg/mL
